In brackets after ≈: the same amount, converted by molar mass. Read-outs that look alike come from different tables or passages of the source. Where only a bound is given, the exact number is not on record here.

Series [1] is described as follows: pKa measurement. The settings on record: read-out: pKa. The class given is physicochemical.
The subject of series [2] is Escherichia coli (strain CFT073, TPPS 1041). The series is described as follows: Initial urinary tract infection model in BALB/c mice, transurethral treatment (Example 9). The class given is in vivo. As to conditions: 50 mg/kg transurethral 24 hr post-challenge; 60 minutes post-treatment. From the text: Female BALB/c mice (20-22 g) ordered from Envigo are acclimated to housing conditions and handled in accordance with Animal Use Protocol (AUP) number TP-08. Animals are fed irradiated Teklad Global 29 18 Rodent Diet and water ad libitum. Mice are housed 6/cage in static cages with irradiated ⅛″ Teklad corn cobbedding 7902 inside bioBubble® clean rooms that provide H.E.P.A filtered air into the bubble environment at 100 complete air changes per hour. The environment is controlled to a temperature range of 74°±4° F. and a humidity range of 30-70%. All procedures carried out in this experiment are conducted in compliance with the laws, regulations, and guidelines of the National Institutes of Health and with the approval of the TransPharm Preclinical Solutions Animal Care and Use Committee.
A clinical isolate of Escherichia coli (strain CFT073, TPPS 1041) are procured from the University of Michigan.
The organism is grown overnight at 37° C. in ambient atmosphere on trypticase soy agar plates supplemented with 5% sheep blood cells. The culture is aseptically swabbed and transferred to tubes of trypticase soy broth. The optical density is determined at 600 nm. The culture is diluted to provide an inoculum of approximately 7.5 log10 CFU per mouse in a volume of 30 μL. Instillation of the bacterial challenge constituted time 0 hour for the study. Inoculum counts are estimated before inoculation by optical density and confirmed after inoculation by dilution and back counts.
One hour prior to bacterial challenge, water is removed from animal cages. […]
The primary endpoint used to assess progress of the infection is mean bacterial burden per gram of urinary bladder tissue. […] Colony forming units (CFU) are enumerated and the total bacterial burden per gram of urinary bladder tissue homogenate is calculated.
The geometric mean CFU, along with standard error of the mean (SEM), are calculated using Microsoft Excel and bar charts are prepared for the data using GraphPad Prism v. […]

Series [3] concerns E. coli. The series is described as follows: Broth microdilution MIC at incremental pH, E. coli. Type of series: cell-based. As to conditions: Escherichia coli, read-out: MIC. How it is done:
(§1) MIC testing is conducted using the broth (Mueller Hinton Broth) microdilution procedures relevant to each organism group as established by the Clinical and Laboratory Standards Institute (CLSI; 3-7). MIC plates are prepared in accordance with CLSI (3-7). To prepare the test plates, automated liquid handlers are used to conduct serial dilutions and liquid transfers. Automated liquid handlers utilized in this study include the Multidrop 384 (Labsystems, Helsinki, Finland) and the Biomek 2000 (Beckman Coulter, Fullerton CA). The solution is diluted to desired pH using 1 M Citric Acid or 1 M NaOH buffer. A standardized inoculum of each test organism is prepared per CLSI methods (3, 5-7) to equal a 0.5 McFarland standard in the appropriate media followed by an additional 1:20 dilution (1:10 for anaerobes).
(§2) The plates are then inoculated with 10 μL of the diluted 0.5 McFarland suspension using the Biomek 2000 from low to high drug concentration, resulting in a final concentration of approximately 5×10^5 CFU/mL per well. An un-inoculated plate is incubated for the purpose of assessing solubility of the drug in the test media. The plates are stacked 3 to 4 high, covered with a sterile lid on the top plate, and incubated for 18 to 24 hours according to CLSI. The MIC is recorded as the lowest concentration of respective compound that inhibited visible growth of the organism.
(In general: Dilution methods test growth across graded concentrations, often in twofold steps.)

The test system of series [4] is P. aeruginosa. Description: Broth microdilution MIC at incremental pH, P. aeruginosa. Type of series: cell-based. As to conditions: Pseudomonas aeruginosa, read-out: MIC. How it is done: as §1, §2
In series [5] the test system is wild type E. coli (ATCC 25922). Description: Bacterial cytological profiling at pH 4, 5.5, 7 (Example 7), E. coli. The class given is cell-based. As to conditions: pH 5.5 and 7. How it is done: (§3) This bacterial cytological profiling (BCP) investigation uses methods and materials described previously by Nonejuie, P., Burkart, M., Poglianoa, K., Pogiano, J. (2013). Bacterial cytological profiling rapidly identifies the cellular pathways targeted by antibacterial molecules. Proc. Natl. Acad. Sci. U.S.A. 110(40):16169-16174. doi: 10.1073/pnas.1311066110.
(§4) For viable cell counts, cells are grown to OD600≈0.4 and diluted 1:1 into buffered or unbuffered media containing various compound concentrations. Samples are then collected and serially diluted (1:10) on a 96 well plate. Five microliters from each well are spotted on LB plates, incubated at 30° C., and viable cells are counted the next day.
(§5) Samples are collected at 10, 30, 120, and 240 min of exposure for viable cell count and imaging. For imaging, E. coli and S. aureus 200 μL of treated cells per time point are stained with 0.8 μg/mL FM4-64, 1.5 μg/mL DAPI, and 0.4 μM SYTOXGreen (Molecular Probes/Invitrogen). P. aeruginosa samples are stained 0.4 μM SYTOX Green, 28 μg/mL DAPI, and 1 μg/mL FM 4-64. Cells are transferred to an agarose pad (20% LB, 1% agarose) for imaging.
(§6) For Nu-3 and Nu-8 stocks (at pH 4, 5.5 and 7), stock concentration is 500 mg/mL. For pH 4, the stocks are prepared by dissolving Nu-3 in 25 mM citrate buffer and Nu-8 in 350 mM citric acid. […]

For series [6], the system named is methicillin susceptible S. aureus (ATCC 29213). The series is described as follows: Bacterial cytological profiling at pH 4, 5.5, 7 (Example 7), S. aureus. As to conditions: 125 mg/mL. Type of series: cell-based. How it is done:
as §3, §4, §5, §6

As to `CCCCOP(=O)(O)OC[C@H]1O[C@@H](n2cc(C)c(=O)[nH]c2=O)C[C@H]1OP(=O)(O)OCCCC` [Nu-4], the pKa in series [1] was 2.3.
For the compound gentamicin [reference compound], the “average bladder CFU burden” value in series [2] was found to be 6.1 log10 CFU.
On to `CCCCOP(=O)(O)OC[C@H]1O[C@@H](n2cc(C)c(=O)[nH]c2=O)C[C@@H]1OP(=O)(O)OCCCC` [Nu-3], for which the minimal inhibitory concentration (MIC) in series [3] (pH 1) is 12.5 mg/mL (≈ 24.3 mM); in series [3] (pH 3), more than 100 mg/mL; in series [3] (pH 5), more than 100 mg/mL; in series [3] (pH 7), more than 100 mg/mL; in series [4] (pH 1) it was 12.5 mg/mL (≈ 24.3 mM); in series [4] (pH 3), more than 100 mg/mL. For the same compound, the minimum inhibitory concentration (MIC) in series [4] (pH 5) and in series [4] (pH 7) was more than 100 mg/mL throughout. Besides, the “effect on cell permeability, cell viability and growth” value in series [5] is recorded as “ineffective”. Also, the cell growth result in series [6] was “slight reduction in cell growth resembling that at pH 4 alone”.
Consider `COC1[C@@H](OP(=O)(O)OCCCCO)[C@@H](COP(=O)(O)OCCCCO)O[C@H]1n1ccc(=O)[nH]c1=O` (stereo partly shown) [Nu-2], for which the pKa in series [1] was 2.3.
As to `CCCCOP(=O)(O)OCCOCCOP(=O)(O)OCCCC` [Nu-5], the pKa in series [1] stood at 2.28. In addition, the MIC worked out at 6.25 mg/mL (≈ 16.5 mM) in series [3] (pH 1); 100 mg/mL (≈ 264 mM) in series [3] (pH 3); 100 mg/mL (≈ 264 mM) in series [3] (pH 5); 100 mg/mL (≈ 264 mM) in series [3] (pH 7); 6.25 mg/mL (≈ 16.5 mM) in series [4] (pH 1); 100 mg/mL (≈ 264 mM) in series [4] (pH 3). The MIC in series [4] (pH 5) and in series [4] (pH 7) was 100 mg/mL (≈ 264 mM) in each case.

The term pKa denotes the pH at which an ionisable group is half protonated. By MIC is commonly meant the lowest concentration that inhibits growth of the organism.

For the origin of these results see patent publication US12030908B2, “Antimicrobial compounds, compositions, and uses thereof” (Lakewood Amedex, Inc., priority 2017, dated 2024).
